From publication PMC2248166, “Quantitative peptide binding motifs for 19 human and mouse MHC class I molecules derived using positional scanning combinatorial peptide libraries” (Immunome Research, 2008)

How the values were obtained:
Format in all cases: binding
HLA A*3001 = HLA A*3001 (Homo sapiens, UniProt P04439, D140H/D185E/E176W/F33S/G80R/H175R/K168Q/R138E/R41S); experiment: biochemical
HLA A*3201 = HLA A*3201 (Homo sapiens, UniProt P04439, A270S/D101S/D185E/E176V/E277Q/F133L/G103R/G107R/G231S/H175R/I121M/I218V/I322F/K168Q/L105A/L300P/L318F/M331R/P208A/P217A/Q94H/R106L/R138Q/S129P/T104I/T323A/T345S/V100E/V321M/V358M); experiment: biochemical
HLA A*6802 = HLA A*6802 (Homo sapiens, UniProt P04439, A269V/D140Y/D185E/E176V/E277Q/E87N/F33Y/G231S/I121R/I166T/I218V/L180W/L300P/L318F/N151K/P208A/P217A/Q86R/R138H/R169H/S129P/T345S/V36M)
HLA B*0801 = HLA B*0801 (Homo sapiens, UniProt P01889, A93T/A95T/D138N/E176V/E187T/K202T/Q94N/R180D/S35A/V36M/Y33D/Y91F); experiment: biochemical
HLA B*1501 = HLA B*1501 (Homo sapiens, UniProt P01889, A329T/A93T/A95T/C349S/D201E/D98Y/E187L/E204Q/E69M/E70A/K202T/N87E/Q94N/R155S/R180W/S121R/S35A/S48A/V306I/V36M/Y140S/Y91S); experiment: biochemical
HLA B*1503 = HLA B*1503 (Homo sapiens, UniProt P01889, A329T/A93T/A95T/C349S/D201E/D98Y/E187L/E204Q/K202T/N87E/Q94N/R155S/R180L/S121R/S35A/V306I/V36M/Y140S/Y91S); experiment: biochemical
HLA B*3501 = HLA B*3501 (Homo sapiens, UniProt P01889, A329T/A93T/A95T/C349S/D201E/D98Y/E176V/E187L/E204Q/E69T/I218V/K202T/L119I/Q94N/R155S/R180L/S121R/S35A/S48A/T118I/V127L/V306I/V36M/Y140S/Y91F)
HLA B*5101 = HLA B*5101 (Homo sapiens, UniProt P01889, A329T/A93T/A95T/C349S/D138N/D201E/D98Y/E187L/E204Q/E69T/G107R/I218V/K202T/L105A/L119W/N104I/Q94N/R106L/R155S/R180L/S101N/S121T/S35A/S48A/V306I/V36M/Y195H/Y91F)
HLA B*5301 = HLA B*5301 (Homo sapiens, UniProt P01889, A329T/A93T/A95T/C349S/D201E/D98Y/E176V/E187L/E204Q/E69T/G107R/I218V/K202T/L105A/L119I/N104I/Q94N/R106L/R155S/R180L/S101N/S121R/S35A/S48A/T118I/V127L/V306I/V36M/Y140S/Y91F)
HLA B*5401 = HLA B*5401 (Homo sapiens, UniProt P01889, A329T/C349S/D138N/D201E/E176V/E187T/E204Q/E69G/I76V/K202T/L119W/R155S/R180L/S121T/S35A/S48A/V127L/V306I/V36M/Y140L)
HLA B*5801 = HLA B*5801 (Homo sapiens, UniProt P01889, A329T/C349S/D201E/D98Y/E176V/E187L/E204Q/E69T/G107R/I218V/I90N/K202T/L105A/L119I/N104I/N87E/Q89R/Q94S/R106L/R155S/R180L/R86G/S101N/S121R/S35A/S48A/T118I/V127L/V306I/V36M/Y140S/Y91M)
HLA B*5802 = HLA B*5802 (Homo sapiens, UniProt P01889, A329T/C349S/D201E/D98Y/E176V/E187L/E204Q/E69T/G107R/I218V/I90N/K202T/L105A/N104I/N87E/Q89R/Q94S/R106L/R155S/R180L/R86G/S101N/S121W/S35A/S48A/V127L/V306I/V36M/Y140S/Y91M)
H-2 D^b = H-2 D^b (Mus musculus, UniProt P01899)
Chain of H-2 D^b (P01887 21-119): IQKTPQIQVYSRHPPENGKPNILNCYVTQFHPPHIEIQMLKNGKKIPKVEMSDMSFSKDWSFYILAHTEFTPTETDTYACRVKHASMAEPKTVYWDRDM
Chain of H-2 D^b (P01899 25-362): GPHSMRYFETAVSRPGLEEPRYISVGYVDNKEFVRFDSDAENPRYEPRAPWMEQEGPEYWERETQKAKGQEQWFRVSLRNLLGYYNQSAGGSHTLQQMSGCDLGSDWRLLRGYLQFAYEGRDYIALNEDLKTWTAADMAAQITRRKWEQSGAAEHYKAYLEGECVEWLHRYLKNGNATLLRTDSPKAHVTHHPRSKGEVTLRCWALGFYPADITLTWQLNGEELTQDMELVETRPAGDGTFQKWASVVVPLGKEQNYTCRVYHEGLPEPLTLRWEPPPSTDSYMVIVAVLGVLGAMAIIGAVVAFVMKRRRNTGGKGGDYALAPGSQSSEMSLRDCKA

H-2 D^d = H-2 D^d (Mus musculus, UniProt P01900)
Chain of H-2 D^d (P01900 whole entry, looked up): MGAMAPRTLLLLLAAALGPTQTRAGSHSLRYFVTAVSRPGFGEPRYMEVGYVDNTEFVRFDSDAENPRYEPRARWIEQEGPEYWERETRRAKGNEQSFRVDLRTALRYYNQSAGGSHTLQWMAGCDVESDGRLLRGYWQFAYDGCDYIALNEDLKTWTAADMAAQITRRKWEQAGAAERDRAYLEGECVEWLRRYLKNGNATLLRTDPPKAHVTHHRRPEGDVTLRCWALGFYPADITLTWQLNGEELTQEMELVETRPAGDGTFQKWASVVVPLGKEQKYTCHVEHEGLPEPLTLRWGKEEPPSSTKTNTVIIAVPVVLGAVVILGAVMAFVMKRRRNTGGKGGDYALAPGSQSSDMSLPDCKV

H-2 K^d = H-2 K^d (Mus musculus, UniProt P01902)
Chain of H-2 K^d (P01887 21-119): as the sequence (P01887 21-119) above
Chain of H-2 K^d (P01902 22-368): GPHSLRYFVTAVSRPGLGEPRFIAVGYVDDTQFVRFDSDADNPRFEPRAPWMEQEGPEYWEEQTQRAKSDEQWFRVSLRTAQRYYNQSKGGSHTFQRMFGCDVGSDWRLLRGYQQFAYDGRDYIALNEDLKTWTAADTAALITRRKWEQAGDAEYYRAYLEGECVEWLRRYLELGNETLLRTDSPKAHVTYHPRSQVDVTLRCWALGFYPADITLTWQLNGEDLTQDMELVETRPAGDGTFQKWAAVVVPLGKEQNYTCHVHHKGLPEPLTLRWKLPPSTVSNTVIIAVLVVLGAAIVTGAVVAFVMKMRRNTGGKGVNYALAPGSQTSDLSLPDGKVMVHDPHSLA

H-2 K^k = H-2 K^k (Mus musculus, UniProt P04223)
Chain of H-2 K^k (P01887 21-119): as the sequence (P01887 21-119) above
Chain of H-2 K^k (P04223 22-369): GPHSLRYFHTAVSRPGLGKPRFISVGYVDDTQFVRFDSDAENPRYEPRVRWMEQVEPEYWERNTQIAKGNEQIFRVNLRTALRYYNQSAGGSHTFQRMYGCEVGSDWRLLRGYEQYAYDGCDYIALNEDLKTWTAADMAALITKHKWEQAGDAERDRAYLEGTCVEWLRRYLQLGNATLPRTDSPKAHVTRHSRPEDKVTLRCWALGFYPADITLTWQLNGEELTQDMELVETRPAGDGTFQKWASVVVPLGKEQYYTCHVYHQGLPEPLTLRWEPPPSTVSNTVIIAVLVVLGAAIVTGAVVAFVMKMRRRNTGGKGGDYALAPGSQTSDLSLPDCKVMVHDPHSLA

Sequence	Normalized average relative binding affinity(ARB) (HLA A*3001)	Normalized average relative binding affinity(ARB) (HLA A*3201)	Normalized average relative binding affinity(ARB) (HLA A*6802)	Normalized average relative binding affinity(ARB) (HLA B*0801)	Normalized average relative binding affinity(ARB) (HLA B*1501)	Normalized average relative binding affinity(ARB) (HLA B*1503)	Normalized average relative binding affinity(ARB) (HLA B*3501)	Normalized average relative binding affinity(ARB) (HLA B*5101)	Normalized average relative binding affinity(ARB) (HLA B*5301)	Normalized average relative binding affinity(ARB) (HLA B*5401)	Normalized average relative binding affinity(ARB) (HLA B*5801)	Normalized average relative binding affinity(ARB) (HLA B*5802)	Normalized average relative binding affinity(ARB) (H-2 D^b)	Normalized average relative binding affinity(ARB) (H-2 D^d)	Normalized average relative binding affinity(ARB) (H-2 K^d)	Normalized average relative binding affinity(ARB) (H-2 K^k)
XXXXXXGXX [3064.0126]	0.044	0.051	0.071	0.17	0.52	0.12	0.12	0.33	0.058	0.073	0.031	0.024	0.45	0.031	0.28	0.34
XXXXDXXXX [3064.0083]	0.041	0.043	0.20	0.0054	0.17	0.23	0.25	0.34	0.13	0.27	0.11	0.12	0.058	0.049	0.15	0.026
XXXXXXXYX [3064.0160]	1.0	0.24	0.22	0.13	0.20	0.17	0.16	0.67	0.23	0.0018	0.42	1.0	0.97	0.40	0.56	0.38
XXXXMXXXX [3064.0091]	0.33	0.31	0.78	0.078	0.41	0.064	0.98	0.45	0.38	0.72	0.092	0.42	0.086	0.19	0.60	0.24
XXXXXGXXX [3064.0106]	0.18	0.22	0.30	0.025	0.35	0.68	0.33	0.29	0.22	0.14	0.31	0.16	0.76	0.48	0.30	0.60
XXXVXXXXX [3064.0078]	0.22	0.27	0.15	0.47	0.52	0.64	0.17	0.67	0.70	1.00	0.33	0.53	0.87	0.48	0.19	0.49
XXXXXXXIX [3064.0148]	0.21	0.60	0.051	0.39	0.18	0.33	0.55	0.21	1.0	0.11	0.39	0.41	0.14	0.25	0.30	0.56
XXXXXPXXX [3064.0113]	0.19	0.27	0.57	0.039	0.11	0.47	0.14	0.067	0.15	0.15	0.20	0.39	0.23	0.094	0.15	0.38
